Assay results: article PMC9684503 (Communications Biology, 2022)
Where “and” joins values, the source holds several entries; their conditions need not be identical. Equal entries are not always repeated. Structures can show the parent of a compound that is named as a salt. Where two headings read alike, the source gives them in different places.

Experiments:
[1] = target: rat VMAT2 (Rattus norvegicus, UniProt Q01827); test: FFN206 uptake assay in transfected Hek293 cells; conditions: for VMAT2-specific FFN206 uptake relative to DMSO (=1), replicate samples: Fig. 2a source data, 25 μM compound; for inhibition at 25 µM: HEK293, read-out: inhibitory effect on VMAT2 activity
[2] = target: T1, VMAT2 (Rattus norvegicus, UniProt Q01827); test: [3H]-DTBZ competition assay in Hek293 cells expressing VMAT2; conditions: 50 μM compound;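 also: HEK293 cells transfected with VMAT2, pretreated 30 min with compound, then given 5 nM [3H]-DTBZ for 20 min at 37 °C, bound label read by scintillation counting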
Method: (§1) We preincubated cells expressing VMAT2 with 50 μM compounds and measured [^3H]-DTBZ binding (5 nM) to the sample (Fig. 3a). […] Hek293 cells were grown and transfected with pcDNA3.1 VMAT2-His as described above. Two days after transfection, cells were harvested, washed and transferred to 96 well MultiScreen FB filter plates (Millipore). […] Cells were washed 3 times with ice cold PBS and 50 µl Ultima Gold LLL (PerkinElmer) was added to each well. […] After a 20 min incubation at 37 °C, cells were washed and [^3H] scintillation counting was performed as described above.

[3] = target: T1, VMAT2; conditions: 50 µM
Method: as §1

[4] = target: T2, rat VMAT2-His (Rattus norvegicus, UniProt Q01827); test: Differential scanning fluorimetry (DSF) with CPM dye: change of melting temperature of purified VMAT2; format: binding; conditions: for ΔTm at 12 µM: compound 0,12 µM; for ΔTm at 37 µM: compound 0,37 µM; for ΔTm at 10 µM: compound 10 µM; for ΔTm at 30 µM: compound 30 µM; for ΔTm at 90 µM: compound 90 µM; for ΔTm at 270 µM: compound 270 µM
T2 construct: The ORF of rat VMAT2 was subcloned into a pFastBac vector; His; made in house; host or cells: Sf9 insect cells (baculovirus)
Method: To screen purified VMAT2 by DSF we expressed the rat VMAT2 protein, as VMAT2-His, in SF9 insect cells using the baculovirus expression system. The transporter was solubilized and purified in n-Dodecyl-β-D-maltoside (DDM)/cholesterol hemisuccinate (CHS) micelles by immobilized metal affinity chromatography (IMAC) and size exclusion chromatography (SEC). […] Screening was performed using DSF and the thiol-reactive dye 7-diethylamino-3-(4-maleimidophenyl)-4-methylcoumarin (CPM), an approach that monitors changes to the protein melting temperature (Tm) upon compound binding. Using CPM or other dyes, DSF-based assays have successfully been used in molecular-based screenings[34],[35]. […] DSF screening was performed in 384 well plates using the thiol-sensing dye 7-diethylamino-3-(4-maleimidophenyl)-4-methylcoumarin (CPM) (Merck). […] Protein melting curves were determined using a LightCycler 480 ii RT-PCR system (Roche), with a temperature ramp increasing from 25 to 95 °C at a rate of 2 °C/min. Data analysis was performed using an in-house software that automatically determines the protein midpoint melting temperature (Tm) based on the second derivative of the melting curves or using the HTSDSF explorer as described in ref. [58]. […] 6 μl of this mix was dispensed to each well of 384 well plates using a Multidrop™ Combi Reagent Dispenser (Thermo Scientific). […] All initial hits were then subjected to an initial validation in triplicates with a compound concentration of 200 μM and a ΔTm > 5× the standard deviation (SD) cut off. […] Processing of the data from the primary screening and the concentration-dependent validation was performed as reported.

[5] = Table 1, DSF screening, mean ± SD of triplicates
[6] = Table S2 dose response, read-out: ΔTm
[7] = Table S2 dose response, compound 1,11 µM, read-out: ΔTm
[8] = Table S2 dose response, compound 3,33 µM, read-out: ΔTm

T1 sequence (Q01827 whole entry): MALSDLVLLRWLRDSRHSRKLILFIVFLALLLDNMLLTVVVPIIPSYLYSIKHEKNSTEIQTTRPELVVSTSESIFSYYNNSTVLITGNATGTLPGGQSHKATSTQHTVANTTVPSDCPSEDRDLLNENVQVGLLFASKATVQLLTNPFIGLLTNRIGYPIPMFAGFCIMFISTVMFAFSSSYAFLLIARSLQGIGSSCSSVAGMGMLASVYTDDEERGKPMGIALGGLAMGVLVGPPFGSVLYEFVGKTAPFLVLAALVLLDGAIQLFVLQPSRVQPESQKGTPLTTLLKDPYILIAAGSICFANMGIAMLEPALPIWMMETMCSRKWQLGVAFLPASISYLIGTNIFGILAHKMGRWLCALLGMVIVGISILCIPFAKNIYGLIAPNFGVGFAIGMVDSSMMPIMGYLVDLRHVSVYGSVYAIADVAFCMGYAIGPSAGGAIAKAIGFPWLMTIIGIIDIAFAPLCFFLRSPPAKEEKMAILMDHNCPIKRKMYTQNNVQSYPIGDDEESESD
T2 sequence (Q01827 whole entry): as above
Chain of rat VMAT2 (Q01827 whole entry): as above

| SMILES | effect on [3H]-DTBZ binding compared with DMSO control (one-way ANOVA, p < 0.001) [2] | ΔTm [4, 5] | ΔTm at 12 µM [4, 6] | ΔTm at 37 µM [4, 6] | ΔTm at 10 µM [4, 6] | ΔTm at 30 µM [4, 6] | ΔTm at 90 µM [4, 6] | ΔTm at 270 µM [4, 6] | IC50 [1] | activity ([3]; hek293 cells) | ΔTm at 11 µM [4, 7] | ΔTm at 33 µM [4, 8] | also measured |
| --- | --- | --- | --- | --- | --- | --- | --- | --- | --- | --- | --- | --- | --- |
| OC(CCN1CCCCC1)(c1ccccc1)C1CC2C=CC1C2 (centres unmarked) [Biperiden, Biperiden hydrochloride] | no statistically significant effect | 1.32 ± 0.22 oC | 0.2 °C | 0.33 °C | 1.11 °C | 1.6 °C | 0.9 °C | 2.12 °C |  |  |  |  | VMAT2-specific FFN206 uptake relative to DMSO (=1), replicate samples [1]: 0.4909 and 0.5029 and 0.6058 and 0.5946; inhibition at 25 µM [1]: ≤ 50%; activity [3]: 79.9 ± 19.1%; ΔTm [4, 7]: 0.45 °C; ΔTm [4, 8]: 0.56 °C |
| C=CCOc1ccccc1OCC(O)CNC(C)C (centres unmarked) [Oxprenolol, Oxprenolol hydrochloride] |  |  |  |  |  |  |  |  | 6.55 ± 3.49 µM |  |  |  |  |
| COc1ccc(CC(C)(C)NC[C@H](O)c2cc(O)cc3c2OCC(=O)N3)cc1 [Olodaterol] | no statistically significant effect | 1.09 ± 0.08 oC |  |  |  |  |  |  | 4.75 ± 1.36 µM | 95.6 ± 18.6% |  |  | FFN206 uptake relative to no compound (=1), replicate samples ([1]; Fig. 2b/2c source data, compound 0.0152 μM, listed as Oldaterol): 1.037 and 1.016 and 1.038 and 1.078; FFN206 uptake relative to no compound (=1), replicate samples ([1]; Fig. 2b/2c source data, compound 0.1372 μM, listed as Oldaterol): 1.061 and 1.023 and 1.068 and 1.18; FFN206 uptake relative to no compound (=1), replicate samples ([1]; Fig. 2b/2c source data, compound 0.4115 μM, listed as Oldaterol): 0.9896 and 1.059 and 0.9994 and 0.9917; FFN206 uptake relative to no compound (=1), replicate samples ([1]; Fig. 2b/2c source data, compound 1.2346 μM, listed as Oldaterol): 0.8954 and 0.9111 and 0.8127 and 1.136; FFN206 uptake relative to no compound (=1), replicate samples ([1]; Fig. 2b/2c source data, compound 3.7037 μM, listed as Oldaterol): 0.4411 and 0.5591 and 0.475 and 0.4566; FFN206 uptake relative to no compound (=1), replicate samples ([1]; Fig. 2b/2c source data, compound 11.1111 μM, listed as Oldaterol): 0.3412 and 0.3104 and 0.1707 and 0.3679; FFN206 uptake relative to no compound (=1), replicate samples ([1]; Fig. 2b/2c source data, compound 100.0000 μM, listed as Oldaterol): 0.0752 and 0.06166 and -0.04341 and -0.00625; FFN206 uptake relative to no compound (=1), replicate samples ([1]; Fig. 2c source data, compound 0.0017 μM, listed as Oldaterol): 1.069 and 1.105 and 1.094 and 1.258 |
| CC(C)NCC(O)COc1ccc(COCCOC(C)C)cc1 (centres unmarked) [Bisoprolol] |  | 1.49 ± 0.05 oC |  |  |  |  |  |  | 3.17 ± 0.895 µM |  |  |  |  |
| CCCC(=O)Nc1ccc(OCC(O)CNC(C)C)c(C(C)=O)c1 (centres unmarked) [Acebutolol, Acebutolol hydrochloride] |  | 2.14 ± 0.05 oC | 0.2 °C | 0.03 °C | 0.2 °C | 0.31 °C | 0.33 °C | 0.9 °C | > 10 µM |  | 0.3 °C | 0.03 °C | IC50 ([1]; read-out: IC50, rat VMAT2, Table S1, substrate uptake assays in transfected Hek293 cells): < 10 µM |
| CC(C)NCC(O)COc1ccc(CCOCC2CC2)cc1 (centres unmarked) [Betaxolol, Betaxolol hydrochloride] |  | 1.98 ± 0.15 oC | -0.32 °C | -0.34 °C | 0.12 °C | 0.01 °C | 0.2 °C | 1.16 °C | 6.85 ± 3.62 µM |  | 0.01 °C | 0.01 °C |  |
| OCc1cc([C@@H](O)CNCCCCCCOCCOCc2c(Cl)cccc2Cl)ccc1O [Vilanterol] |  |  |  |  |  |  |  |  | 0.047 ± 0.014 µM |  |  |  | FFN206 uptake relative to no compound (=1), replicate samples ([1]; Fig. 2b/2c source data, compound 0.0152 μM): 0.9388 and 0.9839 and 0.9625 and 0.9806; FFN206 uptake relative to no compound (=1), replicate samples ([1]; Fig. 2b/2c source data, compound 0.1372 μM): 0.349 and 0.2794 and 0.2127 and 0.5464; FFN206 uptake relative to no compound (=1), replicate samples ([1]; Fig. 2b/2c source data, compound 0.4115 μM): 0.2586 and 0.1616 and 0.1258 and 0.3046; FFN206 uptake relative to no compound (=1), replicate samples ([1]; Fig. 2b/2c source data, compound 1.2346 μM): 0.2328 and 0.1144 and 0.1141 and 0.2682; FFN206 uptake relative to no compound (=1), replicate samples ([1]; Fig. 2b/2c source data, compound 3.7037 μM): 0.255 and 0.1011 and 0.07806 and 0.2392; FFN206 uptake relative to no compound (=1), replicate samples ([1]; Fig. 2b/2c source data, compound 11.1111 μM): 0.2251 and 0.08176 and 0.1003 and 0.2777; FFN206 uptake relative to no compound (=1), replicate samples ([1]; Fig. 2c source data, compound 0.0017 μM): 1.315 and 1.032 and 1.041 and 1.083 |
| COc1ccc2[nH]c([S+]([O-])Cc3ncc(C)c(OC)c3C)nc2n1 (centres unmarked) [Tenatoprazole] | no statistically significant effect | 7.36 ± 0.41 oC | 0.38 °C | 0.24 °C | 4.77 °C | 6.25 °C | 6.56 °C | 6.79 °C | > 10 µM | 87.5 ± 8.53% | 1.3 °C | 4.85 °C | VMAT2-specific FFN206 uptake relative to DMSO (=1), replicate samples [1]: 0.8521 and 0.6659 and 1.063 and 0.8968; inhibition at 25 µM [1]: ≤ 50% |
| CC(C)n1c(/C=C/C(O)CC(O)CC(=O)O)c(-c2ccc(F)cc2)c2ccccc21 (centres unmarked) [Fluvastatin, Fluvastatin sodium salt] | no statistically significant effect | 4.98 ± 0.17 oC | 0.62 °C | 0.66 °C | 0.87 °C | 1.05 °C | 1.39 °C | 2.74 °C |  | 80.2 ± 34.8% | 0.71 °C | 0.66 °C | VMAT2-specific FFN206 uptake relative to DMSO (=1), replicate samples [1]: 0.09585 and -0.01946 and 0.03446 |
| CCc1cc2c(cc1CC)CC(NC[C@H](O)c1ccc(O)c3[nH]c(=O)ccc13)C2 [Indacaterol] | statistically significantly effect | −1.26 ± 0.15 oC |  |  |  |  |  |  | 0.372 ± 0.195 µM | 31.6 ± 4.76% |  |  | FFN206 uptake relative to no compound (=1), replicate samples ([1]; Fig. 2b/2c source data, compound 0.0152 μM, listed as Indacterol): 1.046 and 0.9873 and 0.9954 and 1.047; FFN206 uptake relative to no compound (=1), replicate samples ([1]; Fig. 2b/2c source data, compound 0.1372 μM, listed as Indacterol): 0.9052 and 0.9503 and 0.5975 and 0.7395; FFN206 uptake relative to no compound (=1), replicate samples ([1]; Fig. 2b/2c source data, compound 0.4115 μM, listed as Indacterol): 0.655 and 0.7802 and 0.5475 and 0.5896; FFN206 uptake relative to no compound (=1), replicate samples ([1]; Fig. 2b/2c source data, compound 1.2346 μM, listed as Indacterol): 0.389 and 0.3824 and 0.2984 and 0.2513; FFN206 uptake relative to no compound (=1), replicate samples ([1]; Fig. 2b/2c source data, compound 3.7037 μM, listed as Indacterol): 0.2198 and 0.2721 and 0.1271 and 0.01615; FFN206 uptake relative to no compound (=1), replicate samples ([1]; Fig. 2b/2c source data, compound 11.1111 μM, listed as Indacterol): 0.3236 and 0.15 and 0.08791 and -0.0508; FFN206 uptake relative to no compound (=1), replicate samples ([1]; Fig. 2b/2c source data, compound 100.0000 μM, listed as Indacterol): 0.1623 and 0.1126 and 0.06583 and 0.01394; FFN206 uptake relative to no compound (=1), replicate samples ([1]; Fig. 2c source data, compound 0.0017 μM, listed as Indacterol): 0.9404 and 1.104 and 0.8827 and 0.8866 |
| CCN(CC)CCCC(C)Nc1ccnc2cc(Cl)ccc12 (centres unmarked) [Chloroquine] | no statistically significant effect |  |  |  |  |  |  |  | > 10 µM | 85.1 ± 11.3% |  |  |  |
| CC(C)(C)NCC(O)c1cc(Cl)c(N)c(Cl)c1 (centres unmarked) [Clenbuterol] |  | 2.19 ± 0.13 oC |  |  |  |  |  |  | > 10 µM |  |  |  |  |
| C=CCc1ccccc1OCC(O)CNC(C)C (centres unmarked) [Alprenolol hydrochloride] |  |  | -0.11 °C | -0.04 °C | 0.14 °C | 0.73 °C | 0.4 °C | 1.21 °C |  |  | 0.04 °C | 0.02 °C | ΔTm ([4]; Table S1, primary hits, average change in melting temperature vs controls, triplicates): 2,30 ± 0,05 oC |
| CCCNCC(O)COc1ccccc1C(=O)CCc1ccccc1 (centres unmarked) [Propafenone, Propafenone hydrochloride] | statistically significantly effect | 4.53 ± 0.18 oC |  | 0.99 °C | 1.65 °C | 2.63 °C | 3.49 °C | 4.45 °C |  |  |  |  | activity [3]: 60.7 ± 20.8%; ΔTm [4, 7]: 1.22 °C; ΔTm [4, 8]: 1.22 °C |
| CC(C)NCC(O)c1ccc2ccccc2c1 (centres unmarked) [Pronethalol, Pronethalol hydrochloride] |  |  |  |  |  |  |  |  | 1.01 ± 0.3 µM |  |  |  | ΔTm ([4]; 10 µM): 0,71 oC; ΔTm ([4]; 11 µM): 0,70 oC; ΔTm ([4]; 12 µM): -0,02 oC; ΔTm ([4]; 30 µM): 1,83 oC; ΔTm ([4]; 33 µM): 0,48 oC; ΔTm ([4]; 37 µM): 0,21 oC; ΔTm ([4]; 90 µM): 2,42 oC; ΔTm ([4]; 270 µM): 3,75 oC |
